The values below come from patent publication US7148204B2, “Antisense modulation of bcl-x expression” (Isis Pharmaceuticala, Inc., priority 1998, dated 2006).

The test system of series [1] is human bcl-x mRNA. As to the kind of experiment: Northern blot analysis of bcl-x mRNA levels in A549 cells. As to conditions: for % CONTROL (bcl-x mRNA levels) / % INHIB (bcl-x mRNA levels): 200 nM chimeric oligonucleotide. In kind it is cell-based. The procedure:
Eighteen hours after antisense treatment, cell monolayers were washed twice with cold PBS and lysed in 1 mL RNAZOL™ (TEL-TEST “B” Inc., Friendswood, Tex.). Total RNA was prepared following manufacturer's recommended protocols. Twenty micrograms of total RNA was fractionated by electrophoresis through 1.2% agarose gels containing 1.1% formaldehyde using a MOPS buffer system (AMRESCO, Inc. Solon, Ohio). RNA was transferred from the gel to HYBOND™-N+ nylon membranes (Amersham Pharmacia Biotech, Piscataway, N.J.) by overnight capillary transfer using a Northern/Southern Transfer buffer system (TEL-TEST “B” Inc., Friendswood, Tex.). RNA transfer was confirmed by UV visualization. Membranes were fixed by UV cross-linking using a STRATALINKER™ UV Crosslinker 2400 (Stratagene, Inc, La Jolla, Calif.).
Membranes were probed using QUICKHYB™ hybridization solution (Stratagene, La Jolla, Calif.) using manufacturer's recommendations for stringent conditions with an 822-base pair bcl-x specific probe prepared by PCR from bases 33–855 of human bcl-xl sequence (Boise et al., 1993, Cell 74:597–608; GenBank accession no. L20121). To normalize for variations in loading and transfer efficiency membranes were stripped and probed for glyceraldehyde-3-phosphate dehydrogenase (GAPDH) RNA (Clontech, Palo Alto, Calif.). Hybridized membranes were visualized and quantitated using a PHOSPHORIMAGER™ and IMAGEQUANT™ Software V3.3 (Molecular Dynamics, Sunnyvale, Calif.). Data was normalized to GAPDH levels in untreated controls.
Oligonucleotides were tested by Northern blot analysis as described in Example 14. Oligonucleotides were tested in A549 cells at a concentration of 400 nM. The results are Table 2:
Oligonucleotides were tested by Northern blot analysis as described in Example 14. Chimeric oligonucleotides were in A549 cells at a concentration of 200 nM. Where present, “N.D.” indicates “not determined”.

Series [2] relates to bcl-xl mRNA. Briefly: RNase protection assay, bcl-xl mRNA in A549 cells. The class given is cell-based, human. As to conditions: RPA, 200 nM. From the text: (§1) The ribonuclease (RNase) protection assay is a sensitive and specific method for quantitating expression levels (Zinn, et al., Cell, 1983, 34:865–79). The method is based on the hybridization of a target RNA to an in vitro transcribed ^32P-labeled anti-sense RNA probe from a DNA template. RNase treatment follows, resulting in degradation of single-stranded RNA and excess probe. The probe and target RNA are resolved by denaturing polyacrylamide gel electrophoresis with the “protected” probe visualized using autoradiography or beta imaging equipment. Template sets can be purchased (PharMingen Inc., San Diego Calif.) which contain a series of biologically relevant templates, each of distinct length and each representing a sequence in a distinct mRNA species. Each template set is capable of detecting up to 11 unique gene messages in a single reaction mix in addition to one or more housekeeping genes, L32 and GAPDH, which serve as internal controls. These template sets allow for multiple determinations to be made from a single sample. Multi-probe RPA can be performed on total RNA preparations derived by standard methods, without further purification of poly-A+ RNA.
(§2) Oligonucleotides were evaluated for their respective effects on bcl-xs and bcl-xl mRNA levels along with total bcl-x mRNA levels, using the RIBOQUANT™ RNase protection kit (Pharmingen, San Diego Calif.). All assays were performed according to manufacturer's protocols. Briefly, multi-probe DNA template sets were used to generate antisense RNA transcripts radiolabeled with […]. The template set used for apoptosis genes was the human hAPO-2 set. These radiolabeled probes were hybridized overnight with typically 10 μg of total cellular RNA. The reaction mixture was then digested with single-strand RNases to generate the protected fragments which were electrophoresed through a 5% acrylamide/urea gel. Protected bands were visualized and quantitated using a PhosphorImager (Molecular Dynamics, Sunnyvale Calif.).
(§3) Human bcl-x has two forms, a long form known as bcl-xl and a short form known as bcl-xs. […] The protein of bcl-xl is similar in size and structure to bcl-2, and could inhibit cell death upon growth factor withdrawal. The protein of bcl-xs is 63 amino acids shorter than bcl-xl. It could inhibit the bcl-2 function, thus promoting programmed cell death (apoptosis). Oligonucleotides were evaluated for their respective effects on bcl-xs and bcl-xl mRNA levels along with total bcl-x mRNA levels, using the RIBOQUANT™ RNase protection kit (Pharmingen, San Diego Calif.). All assays were performed according to manufacturer's protocols.
(§4) These oligonucleotides were tested for their inhibitory effects on bcl-xl and bcl-xs mRNA levels in A549 cells, as detected by RPA analysis. Oligonucleotide concentration was 200 nM.

The subject of series [3] is bcl-xs/bcl-xl mRNA ratio. As to the kind of experiment: RNase protection assay, bcl-xs/bcl-xl mRNA ratio in A549 cells. As to conditions: A549 cells, RPA, 200 nM; no oligo = 1. The class given is cell-based, human.
Description: as §1, §2, §3, §4

In the oligonucleotide strings, read from the 5' end, every base follows the letter of its sugar. An asterisk marks phosphorothioate; unmarked linkages are phosphodiester. Other units and linkages are bracketed, terminal groups are in braces. A string of capitals states the bases alone. e = 2'-O-(2-methoxyethyl) (MOE); [5mC] = 5-methylcytosine; d = 2'-deoxy (DNA)

In the case of “16001 (antisense eT*e[5mC]*e[5mC]*eA*eT*dC*dT*dC*dC*dG*dA*dT*dT*dC*dA*eG*eT*e[5mC]*e[5mC]*e[5mC]) [compound 16001]”, in series [1], the “% CONTROL (bcl-x mRNA levels)” value amounted to 17% and the “% INHIB (bcl-x mRNA levels)” value was determined as 83%. For the substance “16002 (antisense eA*eG*eG*eT*eG*dC*dC*dA*dG*dG*dA*dT*dG*dG*dG*eT*eT*eG*e[5mC]*e[5mC]) [compound 16002]”, in series [1], the “% CONTROL (bcl-x mRNA levels)” value was 8% and the “% INHIB (bcl-x mRNA levels)” value amounted to 92%. For “16003 (antisense eA*eG*eT*eG*eG*dC*dT*dC*dC*dA*dT*dT*dC*dA*dC*e[5mC]*eG*e[5mC]*eG*eG) [compound 16003]”, in that order: 12% and 88%.

With “16004 (antisense e[5mC]*eT*eT*eG*e[5mC]*dT*dT*dT*dA*dC*dT*dG*dC*dT*dG*e[5mC]*e[5mC]*eA*eT*eG) [compound 16004]”, in series [1], the “% CONTROL (bcl-x mRNA levels)” value was determined as 5% and the “% INHIB (bcl-x mRNA levels)” value is given as 95%. For “16005 (antisense eG*e[5mC]*e[5mC]*eG*eG*dT*dA*dC*dC*dG*dC*dA*dG*dT*dT*e[5mC]*eA*eA*eA*e[5mC]) [compound 16005]”, in series [1], the “% CONTROL (bcl-x mRNA levels)” value is reported as 17% and the “% INHIB (bcl-x mRNA levels)” value turned out to be 83%.

For “16006 (antisense e[5mC]*eT*eG*eT*eT*dC*dA*dA*dA*dG*dC*dT*dC*dT*dG*eA*eT*eA*eT*eG) [compound 16006]”, in series [1], the “% CONTROL (bcl-x mRNA levels)” value was 28% and the “% INHIB (bcl-x mRNA levels)” value came out at 72%.

In the case of “16007 (antisense eT*eA*e[5mC]*e[5mC]*e[5mC]*dC*dA*dT*dC*dC*dC*dG*dG*dA*dA*eG*eA*eG*eT*eT) [compound 16007]”, in series [1], the “% CONTROL (bcl-x mRNA levels)” value is given as 31% and the “% INHIB (bcl-x mRNA levels)” value turned out to be 69%. For “16010 (antisense eT*e[5mC]*e[5mC]*eA*eA*dG*dC*dT*dG*dC*dG*dA*dT*dC*dC*eG*eA*e[5mC]*eT*e[5mC]) [compound 16010]”, in that order: 13% and 87%. For “16011 (antisense e[5mC]*eT*eG*eG*eA*dT*dC*dC*dA*dA*dG*dG*dC*dT*dC*eT*eA*eG*eG*eT) [compound 16011]”, in that order: 31% and 69%. “16014 (antisense eA*eG*e[5mC]*eG*eT*dT*dC*dC*dT*dG*dG*dC*dC*dC*dT*eT*eT*e[5mC]*eG*eG) [compound 16014]”: in series [1], the “% CONTROL (bcl-x mRNA levels)” value is 22% and the “% INHIB (bcl-x mRNA levels)” value is listed as 78%. As to “16015 (antisense eG*eT*e[5mC]*eA*eT*dG*dC*dC*dC*dG*dT*dC*dA*dG*dG*eA*eA*e[5mC]*e[5mC]*eA) [compound 16015]”, in series [1], the “% CONTROL (bcl-x mRNA levels)” value was found to be 12% and the “% INHIB (bcl-x mRNA levels)” value amounted to 88%.

As for “16018 (antisense eG*eA*eG*eG*eG*dT*dA*dG*dA*dG*dT*dG*dG*dA*dT*eG*eG*eT*e[5mC]*eA) [compound 16018]”, in series [1], the “% CONTROL (bcl-x mRNA levels)” value was found to be 40% and the “% INHIB (bcl-x mRNA levels)” value is 60%.

For “16019 (antisense eG*eG*eA*eG*eG*dA*dT*dG*dT*dG*dG*dT*dG*dG*dA*eG*e[5mC]*eA*eG*eA) [compound 16019]”, in series [1], the “% CONTROL (bcl-x mRNA levels)” value amounted to 40% and the “% INHIB (bcl-x mRNA levels)” value is given as 60%.

Consider “26066 (antisense ATCCAAGGCTCTAGGTGGTC; all 2'-MOE, all phosphorothioate, methylation of C not given here) [compound 26066]”, for which, in series [2], the “% CONTROL bcl-xl” value was 24%. Further, the “bcl-xs/bcl-xl Fold difference” value in series [3] is on record as 37 fold.

On to “26080 (antisense CTGGTTACACGACTCCAGGT; all 2'-MOE, all phosphorothioate, methylation of C not given here) [compound 26080]”, for which the “% CONTROL bcl-xl” value in series [2] is reported as 77%. For the same substance, the “bcl-xs/bcl-xl Fold difference” value in series [3] came to 2 fold. In the case of “105751 (antisense TGGTTCTTACCCAGCCGCCG; all 2'-MOE, all phosphorothioate, methylation of C not given here) [compound 105751]”, in series [2], the “% CONTROL bcl-xl” value turned out to be 34%. Moreover, the “bcl-xs/bcl-xl Fold difference” value in series [3] was 45 fold. For “106249 (antisense CTCTAGGTGGTCATTCAGGT; all 2'-MOE, all phosphorothioate, methylation of C not given here) [compound 106249]”, in that order: 47% and 23 fold.

With “106250 (antisense CTAGGTGGTCATTCAGGTAA; all 2'-MOE, all phosphorothioate, methylation of C not given here) [compound 106250]”, the “% CONTROL bcl-xl” value in series [2] is reported as 40%. For the same substance, the “bcl-xs/bcl-xl Fold difference” value in series [3] is given as 21 fold. For “106251 (antisense AGGTGGTCATTCAGGTAAGT; all 2'-MOE, all phosphorothioate, methylation of C not given here) [compound 106251]”, in that order: 57% and 25 fold. As to “106252 (antisense GTGGTCATTCAGGTAAGTGG; all 2'-MOE, all phosphorothioate, methylation of C not given here) [compound 106252]”, in series [2], the “% CONTROL bcl-xl” value is 72%. For the same substance, the “bcl-xs/bcl-xl Fold difference” value in series [3] amounted to 23 fold. As for “106253 (antisense GGTCATTCAGGTAAGTGGCC; all 2'-MOE, all phosphorothioate, methylation of C not given here) [compound 106253]”, the “% CONTROL bcl-xl” value in series [2] is 48%. Besides, the “bcl-xs/bcl-xl Fold difference” value in series [3] came to 19 fold.

With “106254 (antisense TCATTCAGGTAAGTGGCCAT; all 2'-MOE, all phosphorothioate, methylation of C not given here) [compound 106254]”, the “% CONTROL bcl-xl” value in series [2] is recorded as 80%. For the same substance, in series [3], the “bcl-xs/bcl-xl Fold difference” value was 13 fold. Regarding “106255 (antisense ATTCAGGTAAGTGGCCATCC; all 2'-MOE, all phosphorothioate, methylation of C not given here) [compound 106255]”, the “% CONTROL bcl-xl” value in series [2] turned out to be 64%. Moreover, the “bcl-xs/bcl-xl Fold difference” value in series [3] is given as 17 fold.

Turning to “106256 (antisense TCAGGTAAGTGGCCATCCAA; all 2'-MOE, all phosphorothioate, methylation of C not given here) [compound 106256]”, in series [2], the “% CONTROL bcl-xl” value is recorded as 82%. Further, the “bcl-xs/bcl-xl Fold difference” value in series [3] is on record as 15 fold. In the case of “CGGGTTCTCCTGGTGGCAAT (all phosphorothioate, sugars by position and methylation of C not given here; further chemistry not fully specified) [ISIS 11219]”, the 50% inhibitory concentration (IC50) in series [1] (dose-response, Northern blot) is ~250 nM. Take “TGGTTCTTACCCAGCCGCCG (all 2'-MOE, all phosphorothioate, methylation of C not given here) [ISIS 105751]”: the “bcl-xs/bcl-xl Fold difference” value in series [3] was 45 fold.
